Values of other authors, collected in US12589118B2, “Method of prolonging the lifespan of patients with cerebral autosomal dominant arteriopathy with subcortical infarcts and leukoencephalopathy (CADASIL) using a cerebrolysin® preparation” (EVER NEURO PHARMA GMBH, priority 2017, dated 2026).

Tests used:
[1] = transcranial Doppler
[2] = transcranial Doppler; remark: listed apart in the source
[3] = 200-400 mg bid in 24 months

For CC(C)c1c(C(=O)Nc2ccccc2)c(-c2ccccc2)c(-c2ccc(F)cc2)n1CC[C@@H](O)C[C@@H](O)CC(=O)O [Atorvastatin], the “effect on cerebral blood flow” value [1] is listed as “no effects”.
For N=C(N)NCCC[C@H](N)C(=O)O [L-arginine], the vasoreactivity [2] is listed as “induced-vasoreactivity”.
For C[C@H](O)[C@H](O)[C@H]1CNc2nc(N)[nH]c(=O)c2N1 [Sapropterin], the “primary end-point: mean difference in reactive hyperaemia index (improvement of peripheral vasoreactivity)” value [3] is listed as “not significant”.
